Consider six compounds from publication PMC10531082, “Antiproliferative and Antimetastatic Properties of 16-Azidomethyl Substituted 3-O-Benzyl Estrone Analogs” (International Journal of Molecular Sciences, 2023).

Where two headings read alike, the source gives them in different places. Bounds are passed on as bounds.

For orientation: inhibition means the share of the control response that was lost under treatment. A word on the IC50: it is the concentration needed to halve the response being measured. Lower therefore signals greater potency in that assay. In general, EC50 refers to the concentration needed to bring the measured effect to its halfway point. Low values mean a more potent agent, high ones a less potent agent.

Data set [1] has as its system HeLa. Briefly: cells. On the set-up: MTT antiproliferative assay, absorbance at 545 nm, inhibition versus untreated control. As to conditions: Homo sapiens; for inhibition at 10 µM / inhibition at 30 µM: read-out: Growth inhibition (%) HeLa. On the procedure: (§1) The antiproliferative capacities of the prepared compounds were determined by employing the MTT assay against a panel of human adherent cancer cell lines isolated from breast (MCF-7 and MDA-MB-231) or cervical (HeLa and SiHa) tumors. All compounds were tested at two concentrations (10 and 30 μM). When >50% of antiproliferative capacity was obtained at 10 μM, the assays were repeated with a broader concentration range (0.1–30 μM), and IC50 values were calculated (Figure 2, Supplementary Table S1, Supplementary Figure S1). […] MTT assays were performed against the non-cancerous fibroblast cell line NIH/3T3 to obtain preliminary data on cancer selectivity of 16AABE and 16BABE. […] The ratios of IC50 values obtained against cancer cells and fibroblasts were in the range of 0.2 and 0.5, indicating substantial cancer selectivity of these two compounds (Table 1). Cancer cells were seeded onto a 96-well microplate for the proliferation assay at a density of 5000 cells/well. After 24 h of incubation, 200 μL of new medium containing the test compounds at 10 or 30 µM concentrations was added. Absorbance of the reduced MTT solution was measured at 545 nm using a microplate reader, with untreated cells serving as the negative control. In the case of active compounds (i.e., >50% cell growth inhibition at 10 μM), the assay was repeated with a series of dilutions, and sigmoidal dose–response curves were fitted to the obtained data. The IC50 values, representing the concentration at which cell proliferation was reduced by 50% compared with the untreated control, were calculated using GraphPad Prism 5 (GraphPad Software, San Diego, CA, USA). Each in vitro experiment was conducted on two microplates with a minimum of five parallel wells. […] Cisplatin was used as a reference agent.

Data set [2] deals with MCF-7. Nature of the data set: cells. Conditions: Homo sapiens, MCF7; for inhibition at 10 µM / inhibition at 30 µM: read-out: Growth inhibition (%) MCF-7. More on the design: MTT antiproliferative assay, absorbance at 545 nm, inhibition versus untreated control. On the procedure:
as §1

For data set [3], the system named is SiHa. Nature of the data set: cells. On the set-up: MTT antiproliferative assay, absorbance at 545 nm, inhibition versus untreated control. As to conditions: Homo sapiens; for inhibition at 10 µM / inhibition at 30 µM: read-out: Growth inhibition (%) SiHa. On the procedure:
as §1

In data set [4] the test system is MDA-MB-231. Briefly: cells. More on the design: MTT antiproliferative assay, absorbance at 545 nm, inhibition versus untreated control. Conditions: Homo sapiens; for inhibition at 10 µM / inhibition at 30 µM: read-out: Growth inhibition (%) MDA-MB-231. On the procedure:
as §1

The nature of data set [5]: in vitro. More on the design: MTT assay on non-cancerous NIH/3T3 fibroblasts, absorbance at 545 nm, selectivity counter-screen. As to conditions: mouse, nih/3t3 cells; read-out: IC50 NIH/3T3. As to the method:
The antiproliferative capacities of the prepared compounds were determined by employing the MTT assay against a panel of human adherent cancer cell lines isolated from breast (MCF-7 and MDA-MB-231) or cervical (HeLa and SiHa) tumors. All compounds were tested at two concentrations (10 and 30 μM). When >50% of antiproliferative capacity was obtained at 10 μM, the assays were repeated with a broader concentration range (0.1–30 μM), and IC50 values were calculated (Figure 2, Supplementary Table S1, Supplementary Figure S1). […] MTT assays were performed against the non-cancerous fibroblast cell line NIH/3T3 to obtain preliminary data on cancer selectivity of 16AABE and 16BABE. […] The ratios of IC50 values obtained against cancer cells and fibroblasts were in the range of 0.2 and 0.5, indicating substantial cancer selectivity of these two compounds (Table 1). The antiproliferative activity of the presented compounds were evaluated against a panel of human gynecological cancer cell lines. MCF-7 and MDA-MB-231 cell lines were derived from breast cancers, while HeLa and SiHa cell lines originated from cervical cancers of different pathological backgrounds. […] Absorbance of the reduced MTT solution was measured at 545 nm using a microplate reader, with untreated cells serving as the negative control. […]

Data set [6] deals with HeLa. Briefly: cells. On the set-up: MTT assay, growth inhibition of cells relative to untreated control. As to conditions: Homo sapiens, HeLa; for inhibition at 10 µM: read-out: Growth inhibition (%) at 10 uM; for inhibition at 30 µM: read-out: Growth inhibition (%) at 30 uM. On the procedure: (§2) Cancer cells were seeded onto a 96-well microplate for the proliferation assay at a density of 5000 cells/well. After 24 h of incubation, 200 μL of new medium containing the test compounds at 10 or 30 µM concentrations was added. Absorbance of the reduced MTT solution was measured at 545 nm using a microplate reader, with untreated cells serving as the negative control. In the case of active compounds (i.e., >50% cell growth inhibition at 10 μM), the assay was repeated with a series of dilutions, and sigmoidal dose–response curves were fitted to the obtained data. The IC50 values, representing the concentration at which cell proliferation was reduced by 50% compared with the untreated control, were calculated using GraphPad Prism 5 (GraphPad Software, San Diego, CA, USA). Each in vitro experiment was conducted on two microplates with a minimum of five parallel wells. […] Cisplatin was used as a reference agent. The antiproliferative capacities of the prepared compounds were determined by employing the MTT assay against a panel of human adherent cancer cell lines isolated from breast (MCF-7 and MDA-MB-231) or cervical (HeLa and SiHa) tumors. All compounds were tested at two concentrations (10 and 30 μM). When >50% of antiproliferative capacity was obtained at 10 μM, the assays were repeated with a broader concentration range (0.1–30 μM), and IC50 values were calculated (Figure 2, Supplementary Table S1, Supplementary Figure S1). […] MTT assays were performed against the non-cancerous fibroblast cell line NIH/3T3 to obtain preliminary data on cancer selectivity of 16AABE and 16BABE. […] The ratios of IC50 values obtained against cancer cells and fibroblasts were in the range of 0.2 and 0.5, indicating substantial cancer selectivity of these two compounds (Table 1).

The subject of data set [7] is MCF-7. Nature of the data set: cells. On the set-up: MTT assay, growth inhibition of cells relative to untreated control. As to conditions: Homo sapiens, MCF7; for inhibition at 10 µM: read-out: Growth inhibition (%) at 10 uM; for inhibition at 30 µM: read-out: Growth inhibition (%) at 30 uM. As to the method: as §2
Data set [8] relates to SiHa. Nature of the data set: cells. On the set-up: MTT assay, growth inhibition of cells relative to untreated control. As to conditions: Homo sapiens, SiHa; for inhibition at 10 µM: read-out: Growth inhibition (%) at 10 uM; for inhibition at 30 µM: read-out: Growth inhibition (%) at 30 uM. As to the method: as §2
Data set [9] has as its system MDA-MB-231. Nature of the data set: cells. As to conditions: Homo sapiens, MDA-MB-231; for inhibition at 10 µM: read-out: Growth inhibition (%) at 10 uM; for inhibition at 30 µM: read-out: Growth inhibition (%) at 30 uM. More on the design: MTT assay, growth inhibition of cells relative to untreated control. As to the method: as §2
Data set [10] deals with NIH/3T3. Briefly: cells. More on the design: MTT assay, growth inhibition of cells relative to untreated control. Conditions: Mus musculus, NIH3T3; read-out: Growth inhibition (%) at 30 uM. On the procedure: as §2
Data set [11] has as its target T1, estrogen receptor (ERα) (Homo sapiens, UniProt P03372).
T1 construct: gene ESR1
Briefly: estrogen-responsive luciferase reporter assay in T47D-KBluc cells (agonism). Format: cell-based. In general terms: In a reporter assay the amount or activity of a reporter protein is the signal.

T1 sequence (P03372 whole entry): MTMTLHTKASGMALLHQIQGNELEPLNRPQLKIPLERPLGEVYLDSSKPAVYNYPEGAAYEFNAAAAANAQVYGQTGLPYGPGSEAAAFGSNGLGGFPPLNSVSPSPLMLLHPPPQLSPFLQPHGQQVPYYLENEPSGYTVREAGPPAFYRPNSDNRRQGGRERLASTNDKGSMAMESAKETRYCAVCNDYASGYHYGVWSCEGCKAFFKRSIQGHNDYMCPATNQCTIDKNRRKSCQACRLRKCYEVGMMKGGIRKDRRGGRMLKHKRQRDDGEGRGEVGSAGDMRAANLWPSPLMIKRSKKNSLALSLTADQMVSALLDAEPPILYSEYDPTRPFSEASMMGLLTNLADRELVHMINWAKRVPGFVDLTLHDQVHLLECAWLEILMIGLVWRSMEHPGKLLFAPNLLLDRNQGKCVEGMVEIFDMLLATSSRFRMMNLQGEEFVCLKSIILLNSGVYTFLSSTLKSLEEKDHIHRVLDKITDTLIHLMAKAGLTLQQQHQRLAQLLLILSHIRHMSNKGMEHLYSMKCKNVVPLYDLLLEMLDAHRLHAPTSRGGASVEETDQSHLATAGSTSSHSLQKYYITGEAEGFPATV

For `C[C@]12CC[C@@H]3c4ccc(OCc5ccccc5)cc4CC[C@H]3[C@@H]1C[C@@H](CN=[N+]=[N-])[C@H]2O` [compound 4, 4], the inhibition at 10 µM in data set [1] was 26.6 ± 1.78%; in data set [2] it was less than 20%; in [3], less than 20%; in data set [4], 25.1 ± 2.83%. The inhibition at 30 µM in data set [1] stood at 52.89 ± 0.49%; in [2], 52.4 ± 2.5%; in data set [3], 31.9 ± 0.69%; in data set [4], 57.3 ± 0.98%.
As for `C[C@]12CC[C@@H]3c4ccc(OCc5ccccc5)cc4CC[C@H]3[C@@H]1C[C@@H](CN=[N+]=[N-])C2=O` [16AABE, 16α-azidomethyl-3-benzyloxyestra-1,3,5(10)-trien-17-on], the IC50 in [1] worked out at 5.01 µM; in [2], 3.13 µM; in data set [3], 4.1 µM; in data set [4] it was 4.72 µM. In addition, in data set [5], the CC50 turned out to be 13.6 µM. Also, the inhibition at 10 µM in [6] turned out to be 93.22 ± 0.92%; in data set [7] it was 91.73 ± 0.71%; in data set [8], 90.1 ± 0.66%; in data set [9], 93.53 ± 0.17%. Further, the inhibition at 30 µM in data set [6] came to 93.96 ± 0.23%; in data set [7], 93.85 ± 0.22%; in [8] it was 91.48 ± 0.55%; in data set [9] it was 95.11 ± 0.31%; in data set [10], 98.29 ± 0.41%.
Turning to `C[C@]12CC[C@@H]3c4ccc(OCc5ccccc5)cc4CC[C@H]3[C@@H]1C[C@@H](CN=[N+]=[N-])[C@@H]2O` [compound 3, 3], the inhibition at 10 µM in data set [1] is 25 ± 2.26%; in [2], 27.3 ± 1.28%; in data set [3], less than 20%; in data set [4], 33.5 ± 2.92%. Also, the inhibition at 30 µM in data set [1] stood at 93.35 ± 0.32%; in data set [2] it was 92.55 ± 0.18%; in [3] it was 86.46 ± 0.36%; in [4] it was 89 ± 0.9%.
For the compound `C[C@]12CC[C@@H]3c4ccc(OCc5ccccc5)cc4CC[C@H]3[C@@H]1C[C@H](CN=[N+]=[N-])C2=O` [16BABE, 16β-azidomethyl-3-benzyloxyestra-1,3,5(10)-trien-17-on], the IC50 in [1] was 4.6 µM; in data set [2], 3.15 µM; in [3] it was 3.85 µM; in [4], 8.13 µM. Moreover, the CC50 in data set [5] turned out to be 18.9 µM. Also, the inhibition at 10 µM came out at 93.4 ± 0.13% in data set [6], 92.94 ± 0.37% in [7], 90.73 ± 0.53% in data set [8] and 93.65 ± 0.24% in [9]. Moreover, the inhibition at 30 µM in data set [6] came out at 94.33 ± 0.32%; in data set [7] it was 93.79 ± 0.4%; in [8], 91.08 ± 0.55%; in data set [9], 95.03 ± 0.23%; in data set [10], 94.8 ± 1.63%. Besides, the EC50 in data set [11] is approximately 0.178 µM.
Turning to `C[C@]12CC[C@@H]3c4ccc(OCc5ccccc5)cc4CC[C@H]3[C@@H]1C[C@H](CN=[N+]=[N-])[C@H]2O` [compound 2, 2], the inhibition at 10 µM in data set [1] was 29.1 ± 1.06%; in [2], 20.2 ± 2.19%; in data set [4] it was 45.1 ± 1.69%. Further, the inhibition at 30 µM worked out at 55.5 ± 2.06% in [1], 51.9 ± 1.85% in data set [2], 43.2 ± 2.58% in data set [3] and 64.2 ± 1.39% in data set [4].
Turning to `C[C@]12CC[C@@H]3c4ccc(OCc5ccccc5)cc4CC[C@H]3[C@@H]1C[C@H](CN=[N+]=[N-])[C@@H]2O` [compound 1, 1], the inhibition at 10 µM is 33.97 ± 0.33% in [1], 38.8 ± 0.81% in data set [2], less than 20% in data set [3] and 34.07 ± 0.27% in [4]. The inhibition at 30 µM in data set [1] amounted to 93.1 ± 0.21%; in data set [2], 92.64 ± 0.22%; in data set [3] it was 89.93 ± 0.2%; in data set [4] it was 92.92 ± 0.09%.
